Legend:
[1] = tested on: M7609 cells; experiment: Autophagy induction by LC3 immunofluorescence staining; assay type: cell-based; details: 1 to 4 days after transfection (FIG. 10)
Protocol: Induction of autophagy by GST-π knockdown was analyzed by immunofluorescence staining with LC3, which is an autophagy-specific marker protein. GST-π knockdown cells obtained by the procedure of Example 1 (2) were plated on a cover slip placed in a 35 mm plastic tissue culture dish so as to give 1×10^5 cells/2 mL. After the medium was aspirated, 4% paraformaldehyde in PBS was added, and incubation was carried out at room temperature for 10 min., thus fixing the cells. Permeabilization of the cells was carried out using 0.5% Triton X-100 in PBS on ice for 5 min. After washing with cold PBS for 10 min., a reaction with anti-LC3B antibody (Invitrogen) diluted with 1% BSA containing PBS was carried out within a humidity chamber at 37° C. for 1 hour. A secondary antibody reaction was carried out using Alexa Fluor488-labeled rabbit antibody (Invitrogen) at 37° C. for 1 hour. Mounting on a slide glass was carried out using Prolong Gold antifade reagent with DAPI, and incubation was carried out at 4° C. for 16 hours. Washing after the antibody reaction was carried out three times using PBS at 37° C. for 5 min. Autophagy-positive cells at the time of examination with a fluorescence microscope were defined as cells having a spot-like LC3 signal present in the cytoplasm.

[2] = tested on: EGFR/PI3K/Akt/mTOR signal cascade; experiment: Western blot of EGFR/PI3K/Akt/mTOR signal; assay type: cell-based; details: M7609 cells, compared with Scramble siRNA (FIG. 11)
Protocol: Expression of each protein constituting the EGFR/PI3K/Akt/mTOR signal cascade was analyzed in the same way as for Example 1 (1), (2), and (4) except that, as primary antibodies, anti-p-EGFR (Tyr1068) antibody (Cell Signaling), anti-EGFR antibody (Santa Cruz), anti-p-PI3K p85 (Tyr458)/p55 (Tyr199) antibody (Cell Signaling), anti-PI3K, p85 antibody (MILLIPORE), anti-p-Akt (Ser473) antibody (Cell Signaling), anti-Akt antibody (Cell Signaling), anti-p-p70S6K (Thr389) antibody (Cell Signaling), anti-p-p70S6K (Thr421/Ser424) antibody (Cell Signaling), and anti-p70S6K antibody (Cell Signaling) were used.

## GST-π siRNA: GST-π siRNA (SEQ ID No: 1: GGGAGGCAAGACCUUCAUUTT, siRNA ID#2385, Ambion) (chemistry not given here)
[1]
  proportion of autophagy-positive cells (spot-like LC3 signal per 500 cells): increased rapidly after treatment, peaked on 2nd day, and then decreased
[2]
  phosphorylation of each protein constituting the EGFR/PI3K/Akt/mTOR signal cascade: reduced
